# Data taken from patent US20250188091A1, “PYRIDONE COMPOUND HAVING INTEGRASE INHIBITORY ACTIVITY AND PHARMACEUTICAL USE THEREOF” (priority 2021, published 2025).
# Read-outs that look alike come from different tables or passages of the source.
# Legend:
# [1] = test system: HIV-1 subtype C MW/93/959; assay: Inhibitory activity against clinical HIV-1 strain MW/93/959 in PBMC; type: cell-based; conditions: for EC50: read-out: hPBMC/HIV-1 EC50; for EC90: read-out: hPBMC/HIV-1 EC90
# Protocol: (§1) Preparation of virus: Clinical HIV-1 virus strains (Table 3) were obtained from the US NIH AIDS Research and Reference Reagent Library. PBMC were extracted from three fresh blood samples that were HIV and HBV seronegative, mixed and cultured, and PHA-P (phytohemagglutinin) was added to stimulate activation. The cells and virus were incubated at 37° C./5% CO2, and the cell culture supernatant after infection was collected and stored frozen at −80° C. Each viral titer was titrated in pooled PBMCs from three donors.
# (§2) Assay of antiviral activity of compounds: Frozen PBMCs were resuspended in fresh culture medium (1×10^6 cells/mL), and added to a round-bottom 96-well plate ([…]). 100 μl of culture medium containing 2 times the final concentration of the compound was added to each well, and then 50 μL of virus solution was added (the final infection dose was MOI=0.002). After 7 days of culture, the reverse transcriptase activity in the supernatant was determined to evaluate HIV-1 replication. At the same time, a 96-well culture plate with only compounds and cells was prepared for the assay of compound cytotoxicity.
# MT-4 cells = assay: Test of cytotoxicity of the compound (MT-4 cells, XTT); type: cell-based; conditions: 6 days
# Protocol: (§3) 1) Test of cytotoxicity of the compound: The test compound was evaluated using a starting concentration of 100 nM and five serial half-log dilutions. Each compound was present in the test medium at a concentration 2 folds of the final desired test concentration. The compound was diluted to 1 mM in DMSO. The compound was then diluted to 200 nM in a drug dilution tube containing 998 μL of test medium (adding 2 μL of 1 mM stock). […] of the 200 nM solution was transferred into 680 μL of the test medium (half-log dilution), and a total of five serial dilutions were carried out. 100 microliters (100 μL) of the solution of each concentration was added to duplicate wells for cytotoxicity evaluation, and each concentration was added to one well for colorimetric evaluation.
# (§4) Cell culture: MT-4 cells were passaged in a T-75 flask before use in the antiviral assay. On the day before the assay, cells were passaged in aliquots at a 1:2 ratio to ensure that they were in the exponential growth phase at the time of infection. Total cells and viable cells were quantified using a hemocytometer and trypan blue dye. The proportion of viable cells used for the assay was greater than 95%. The cells were resuspended in tissue culture medium at 5×10^4 cells per milliliter, and the resulting suspension was added to a drug-containing microtiter plate in a volume of 50 μL.
# (§5) Evaluation of the efficacy and toxicity of the compound with XTT: After culturing for six days in a 37° C., 5% CO2 incubator, tetrazolium dye XTT (2,3-bis(2-methoxy-4-nitro-5-sulfophenyl)-5-[(phenylamino)carbonyl]-2H-tetrazolium hydroxide) was added to the cell culture plate to conduct the test. The XTT solution was a 1 mg/ml RPMI1640 stock solution prepared on the same day. Phenazine methyl sulfate (PMS) solution at a concentration of 0.15 mg/ml was prepared in PBS, and stored in the dark at −20° C. XTT/PMS stock solution was prepared before use by adding 40 μl of PMS per milliliter of XTT solution. […] of XTT/PMS was added to each well of the plate, and the plate was re-incubated for 4 hours at 37° C. The plate was sealed with adhesive plate sealant, and gently shaked or inverted several times to mix the soluble formazan product. The absorbance was read at 450/650 nm.
# [2] = test system: HIV-1 subtype A RW/92/009; assay: Inhibitory activity against clinical HIV-1 strain RW/92/009 in PBMC; type: cell-based; conditions: for EC50: read-out: hPBMC/HIV-1 EC50; for EC90: read-out: hPBMC/HIV-1 EC90
# Protocol: as §1, §2
# [3] = test system: HIV-1 subtype D UG/92/001; assay: Inhibitory activity against clinical HIV-1 strain UG/92/001 in PBMC; type: cell-based; conditions: for EC50: read-out: hPBMC/HIV-1 EC50; for EC90: read-out: hPBMC/HIV-1 EC90
# Protocol: as §1, §2
# [4] = test system: human immunodeficiency virus type 1 IIIB strain (HIV-1IIIB); assay: Cell protection assay against HIV infection (MT-4 cells, XTT); type: cell-based; conditions: for CC50/EC50: MT-4 cells, HIV-1IIIB
# Protocol: The protective effect of the test compound on MT-4 cells infected by human immunodeficiency virus type 1 IIIB strain (HIV-1IIIB) at different concentrations was evaluated.
# The test compound was dissolved in DMSO at a concentration of 10 mM and stored at −20° C.
# 2) Test of the anti-HIV-1 IIIB infection activity of the compound: A starting concentration of 10 nM was used, and five serial five-fold dilutions were carried out on the compound. Each compound was present in the test medium at a concentration 2 folds of the final desired test concentration. 100 microliters (100 μL) of the solution of each concentration was added to triplicate wells for efficacy evaluation, and each concentration was added one well for colorimetric evaluation. AZT was purchased from Sigma Aldrich (St. Louis, MO, USA), and evaluated as a control compound in the antiviral assay.
# as §4
# Virus preparation: The virus used for this assay was lymphotropic virus strain HIV-1IIIB. The viruses were amplified in CEM-SS cells for the preparation of virus stock solution. The pre-titered virus aliquot tube was taken from the refrigerator (−80° C.), and slowly thawed to room temperature in a biosafety cabinet. The viruses were diluted in the tissue culture medium. 50 μl of the diluted virus would produce 85% to 95% cell killing 6 days after infection. 50 μL of the diluted virus was added immediately to the microtiter plate containing cells and drugs.
# as §5
# [5] = test system: WT (wild type) pseudovirus; assay: Pseudovirus-based assay of anti-HIV-1 activity, WT strain; type: cell-based; conditions: HEK-293T, 72 h
# Protocol: (§6) The inhibitory activity against pseudoviruses containing common clinical mutation sites of HIV-1 integrase (G140S/Q148R, Q148R/N155H, E138K, Q148H, R263K and Y143R/Q148H) was determined.
# (§7) Preparation of pseudovirus: Using the lentiviral plasmid pNL4-3-Luc-RE (HedgehogBio) as the backbone, an integrase point mutation plasmid was constructed. HEK293T cells (ATCC) were seeded in a 6-well plate at 5×10^5 cells per well. After 24 hours, when the cell density reached 60% to 80%, transfection was performed. pNL4-3-Luc-R-E- or pNL4-3-Luc-R-E--IN-mutant plasmid and lentivirus packaging plasmid pMD2.G (Beijing Zoman Bio) were added to the transfection reagent in a certain proportion. Cell transfection was performed according to the instructions of transfection reagent PEI25K (Maokang Biotechnology). After 48 hours, the supernatant was collected, centrifuged at 3000 rpm for 5 minutes, filtered with a 0.45 μm microporous membrane, aliquoted, and stored at −80° C. for later use. In HEK293T cells, the pseudovirus titer was determined based on luciferase activity.
# (§8) Determination of antiviral activity of compounds: In a 96-well V-bottom plate, the compound to be tested was diluted with DMSO semi-logarithmically, and a compound solution 4 times the final concentration was prepared for later use. According to the results of different virus titrations, the virus was diluted with complete culture medium for later use. HEK293T cells were digested with trypsin to obtain a cell suspension of 2×10^5/mL. 50 µl of compound diluent, 50 µl of virus diluent and 100 µl of cell suspension were added successively to a 96-well flat-bottomed plate. The final concentration of the compound was 1000 nM to 0.1 nM. The 96-well plate was incubated in a 37° C., 5% CO2 incubator. After 72 hours, 100 µL of culture supernatant was pipetted out carefully from each well of the 96-well plate, 25 µL of Steady-Glo detection reagent (Promega, Cat #E2550) was added to each well in the dark, and then assayed on a machine (Tecan, Type #Spark).
# [6] = test system: HIV-1 integrase Q148H pseudovirus; assay: Pseudovirus-based assay of anti-HIV-1 activity, Q148H strain; type: cell-based; conditions: HEK-293T, 72 h
# Protocol: as §6, §7, §8
# [7] = Test of cytotoxicity of the compound (MT-4 cells, XTT); type: cell-based; conditions: human
# Protocol: as §3, §4, §5
# [8] = test system: HIV-1 integrase G140S/Q148R pseudovirus; assay: Pseudovirus-based assay of anti-HIV-1 activity, G140S/Q148R strain; type: cell-based; conditions: HEK-293T, 72 h
# Protocol: as §6, §7, §8
# [9] = test system: HIV-1 integrase E138K pseudovirus; assay: Pseudovirus-based assay of anti-HIV-1 activity, E138K strain; type: cell-based; conditions: HEK-293T, 72 h
# Protocol: as §6, §7, §8
# [10] = test system: HIV-1 integrase R263K pseudovirus; assay: Pseudovirus-based assay of anti-HIV-1 activity, R263K strain; type: cell-based; conditions: HEK-293T, 72 h
# Protocol: as §6, §7, §8
# [11] = test system: HIV-1 clinical isolates (RW/92/009, MW/93/959, UG/92/001); assay: Clinical HIV-1 isolates in human PBMC (overall comparison); type: cell-based; conditions: RW/92/009, MW/93/959, UG/92/001 in human PBMC
# Protocol: as §1, §2
# [12] = test system: common clinical integrase mutant strains (G140S/Q148R, Q148R/N155H, E138K, Q148H, R263K and Y143R/Q148H); assay: Pseudovirus assay, common clinical integrase mutant strains (overall comparison); type: cell-based, HIV-1; conditions: R263K and Y143R/Q148H pseudoviruses
# Protocol: as §6, §7
# Determination of antiviral activity of compounds: In a 96-well V-bottom plate, the compound to be tested was diluted with DMSO semi-logarithmically, and a compound solution 4 times the final concentration was prepared for later use. […]
# [13] = test system: HIV-1 integrase Q148R/N155H pseudovirus; assay: Pseudovirus-based assay of anti-HIV-1 activity, Q148R/N155H strain; type: cell-based; conditions: HEK-293T, 72 h
# Protocol: as §6, §7, §8
# [14] = test system: HIV-1 integrase Y143R/Q148H pseudovirus; assay: Pseudovirus-based assay of anti-HIV-1 activity, Y143R/Q148H strain; type: cell-based; conditions: HEK-293T, 72 h
# Protocol: as §6, §7, §8
# [15] = MW/93/959, human PBMC, 7 days, reverse transcriptase activity in supernatant
# [16] = RW/92/009, human PBMC, 7 days, reverse transcriptase activity in supernatant
# [17] = UG/92/001, human PBMC, 7 days, reverse transcriptase activity in supernatant
# [18] = Human immunodeficiency virus 1, PBMC, 168 h
# [19] = Human immunodeficiency virus 1, 168 h, MW/93/959, human PBMC, 7 days, reverse transcriptase activity in supernatant
# [20] = Human immunodeficiency virus 1, 168 h, RW/92/009, human PBMC, 7 days, reverse transcriptase activity in supernatant
# [21] = Human immunodeficiency virus 1, 168 h, UG/92/001, human PBMC, 7 days, reverse transcriptase activity in supernatant
SMILES,CC50/EC50 [4],EC50 [5] [nM],EC90 [5] [nM],EC50 [6] [nM],EC90 [6] [nM],CC50 at 6 days [7] [nM],EC50 [8] [nM],EC90 [8] [nM],EC50 [9] [nM],EC90 [9] [nM],EC50 [10] [nM],EC90 [10] [nM],EC50 [13] [nM],EC90 [13] [nM],EC50 [14] [nM],EC90 [14] [nM],further results
Cc1cn([C@H]2C[C@H](N=[N+]=[N-])[C@@H](CO)O2)c(=O)[nH]c1=O [AZT],>250,–,–,–,–,–,–,–,–,–,–,–,–,–,–,–,"EC50 [1, 15]: 0.31 nM; EC90 [1, 15]: 38.6 nM; CC50 (MT-4 cells): > 500 nM; EC50 [2, 16]: 3.58 nM; EC90 [2, 16]: 75.5 nM; EC50 [3, 17]: 4.02 nM; EC90 [3, 17]: 62 nM; EC50 ([4]; MT-4 cells infected by HIV-1IIIB, 6 days, XTT, read-out: EC50): 2 nM"
O=C(NCc1ccc(F)cc1F)c1cn2c(c(O)c1=O)C(=O)N1[C@@H](CF)CO[C@@H]1C2 [Compound 2],>112,1.8,12.9,2.2,12.5,> 100,42.2,194,2.3,14.1,2.9,25.1,82.3,> 1000,3.1,14.1,"EC50 [1, 18]: 0.007 nM; EC90 [1, 18]: 0.37 nM; EC50 [2, 18]: 0.02 nM; EC90 [2, 18]: 0.4 nM; EC50 [3, 18]: 0.28 nM; EC90 [3, 18]: 1.28 nM; EC50 ([4]; Human immunodeficiency virus 1, IIIB, MT4, 144 h): 0.89 nM; activity compared with cabotegravir [11]: more active than cabotegravir; activity compared with cabotegravir [12]: better than that of cabotegravir with significant differences"
"C[C@H]1CO[C@@H]2Cn3cc(C(=O)NCc4ccc(F)cc4F)c(=O)c(O)c3C(=O)N12 [Cabotegravir, cabotegravir]",>41.7,3,21.8,3.6,15.4,> 100,63.5,301,3.7,24.4,4.9,58.8,98,> 1000,4.2,24.8,"EC50 [1, 19]: 0.06 nM; EC90 [1, 19]: 0.67 nM; EC50 [2, 20]: 0.09 nM; EC90 [2, 20]: 0.59 nM; EC50 [3, 21]: 0.46 nM; EC90 [3, 21]: 2.94 nM; EC50 ([4]; Human immunodeficiency virus 1, MT4, 144 h, MT-4 cells infected by HIV-1IIIB, 6 days, XTT, read-out: EC50): 2.4 nM"
